According to patent publication US5244602A, “Photochromic naphthopyrans” (PPG Industries, Inc., priority 1990, dated 1993):

What was measured:
Assay type in all cases: physicochemical
[1] = Absorption maximum of naphthopyran imbibed into polymerizate; conditions: imbibed in poly[diethylene glycol bis(allyl carbonate)]; UV 365 nm lamp
Text: (§1) The naphthopyran compounds of Examples 1-11 were imbibed into separate polymerizates of poly[diethylene glycol bis(allyl carbonate)]. On exposure to ultraviolet light from a 365 nm lamp, the imbibed polymer samples elicited a photochromic response which faded on removal of the UV light source.

[2] = Fade rate (T 1/2) of naphthopyran imbibed into polymerizate after UV activation; conditions: At Room Temperature; imbibed in poly[diethylene glycol bis(allyl carbonate)]; UV 365 nm lamp
Text: as §1
^1. At Room Temperature

[3] = Coloring and bleaching behaviour; conditions: for bleaching: room temperature

Row | SMILES | Absorption λ Max [1] [NM] | Fade Rate T 1/2 [2] [min] | color change on exposure to near ultraviolet [3] | bleaching [3]
1 | O=C(Oc1cc2ccccc2c2c1OC(c1ccccc1)(c1ccccc1)C=C2)c1ccccc1 [Example 5, 5-benzoyloxy-3,3-diphenyl-3H-naphtho[2,1-b]pyran] | 447 | 2.3 |  | 
2 | C1=CC(c2ccccc2)(c2ccccc2)Oc2c(Oc3ccccn3)cc3ccccc3c21 [Example 2, 5(2-pyridyloxy)-3,3-diphenyl-3H naphtho[2,1-b]pyran] | 440 | 1.57 |  | 
3 | CC(=O)Oc1cc2ccccc2c2c1OC(c1ccc(C)cc1)(c1ccc(C)cc1)C=C2 [Example 9, 5-acetoxy-3,3-di(p-methylphenyl)-3H-naphtho[2,1-b]pyran] | 470 | 2.23 |  | 
4 | COc1ccc(C2(c3ccccc3)C=Cc3c(c(OC(C)=O)cc4ccccc34)O2)cc1 (stereo not drawn) [Example 3, 5-acetoxy-3-phenyl-3-p-methoxy phenyl-3H-naphtho[2,1-b]pyran] | 483 | 1.05 |  | 
5 | C1=CC(c2ccccc2)(c2ccccc2)Oc2ccc3ccccc3c21 [3,3-diphenyl-3H-naphtho[2,1-b]pyran] |  |  | change color on exposure to the near ultraviolet | bleaches too rapidly for use in an ophthalmic lens
6 | O=C(CCl)Oc1cc2ccccc2c2c1OC(c1ccccc1)(c1ccccc1)C=C2 [Example 10, 5-chloroacetoxy-3,3-diphenyl-3H-naphtho[2,1-b]pyran] | 458 | 1.6 |  | 
7 | Cc1ccc(C2(c3ccc(C)cc3)C=Cc3c(c(OC(=O)CCl)cc4ccccc34)O2)cc1 [Example 11, 5-chloroacetoxy-3,3-p-methylphenyl-3H-naphtho[2,1-b]pyran] | 476 | 1.75 |  | 
8 | C1=CC(c2ccccc2)(c2ccccc2)Oc2c1ccc1ccccc21 [2,2-diphenyl-2H-naphtho[1,2-b] pyrin] |  |  | colors on exposure to near ultraviolet light at room temperature | does not bleach in a reasonable period of time
9 | COc1ccc(C2(c3ccccc3)C=Cc3c(c(OC(=O)c4ccccc4)cc4ccccc34)O2)cc1 (stereo not drawn) [Example 4, 5-benzoyloxy-3-phenyl-3-p-methoxy phenyl-3H-naphtho[2,1-b]pyran] | 483 | 3.5 |  | 
10 | CC(=O)Oc1cc2ccccc2c2c1OC(c1ccccc1)(c1ccccc1)C=C2 [Example 1, 5-acetoxy-3,3-diphenyl-3H-naphtho[2,1-b]pyran] | 455 | 1.35 |  | 
11 | CNC(=O)Oc1cc2ccccc2c2c1OC(c1ccccc1)(c1ccccc1)C=C2 [Example 6, 5-methylcarbamyloxy-3,3-diphenyl-3H-naphtho[2,1-b]pyran] | 446 | 1.67 |  | 
12 | CC(=O)COc1cc2ccccc2c2c1OC(c1ccccc1)(c1ccccc1)C=C2 [Example 8, 5-(2-acetonyloxy)-3,3-diphenyl-3H-naphtho[2,1-b]pyran] | 434 | 1.6 |  | 
